In ChEMBL document CHEMBL5465560, “Selectivity Literature for EUbOPEN Chemogenomic Library” (2024):
Values belong to the molecule of their own block, whether it stands above or below them.

Assays:
[1] = target: T1, Myosin-IIIb (Homo sapiens) (UniProt Q8WXR4); conditions: at 10 µM
T1 sequence (whole entry): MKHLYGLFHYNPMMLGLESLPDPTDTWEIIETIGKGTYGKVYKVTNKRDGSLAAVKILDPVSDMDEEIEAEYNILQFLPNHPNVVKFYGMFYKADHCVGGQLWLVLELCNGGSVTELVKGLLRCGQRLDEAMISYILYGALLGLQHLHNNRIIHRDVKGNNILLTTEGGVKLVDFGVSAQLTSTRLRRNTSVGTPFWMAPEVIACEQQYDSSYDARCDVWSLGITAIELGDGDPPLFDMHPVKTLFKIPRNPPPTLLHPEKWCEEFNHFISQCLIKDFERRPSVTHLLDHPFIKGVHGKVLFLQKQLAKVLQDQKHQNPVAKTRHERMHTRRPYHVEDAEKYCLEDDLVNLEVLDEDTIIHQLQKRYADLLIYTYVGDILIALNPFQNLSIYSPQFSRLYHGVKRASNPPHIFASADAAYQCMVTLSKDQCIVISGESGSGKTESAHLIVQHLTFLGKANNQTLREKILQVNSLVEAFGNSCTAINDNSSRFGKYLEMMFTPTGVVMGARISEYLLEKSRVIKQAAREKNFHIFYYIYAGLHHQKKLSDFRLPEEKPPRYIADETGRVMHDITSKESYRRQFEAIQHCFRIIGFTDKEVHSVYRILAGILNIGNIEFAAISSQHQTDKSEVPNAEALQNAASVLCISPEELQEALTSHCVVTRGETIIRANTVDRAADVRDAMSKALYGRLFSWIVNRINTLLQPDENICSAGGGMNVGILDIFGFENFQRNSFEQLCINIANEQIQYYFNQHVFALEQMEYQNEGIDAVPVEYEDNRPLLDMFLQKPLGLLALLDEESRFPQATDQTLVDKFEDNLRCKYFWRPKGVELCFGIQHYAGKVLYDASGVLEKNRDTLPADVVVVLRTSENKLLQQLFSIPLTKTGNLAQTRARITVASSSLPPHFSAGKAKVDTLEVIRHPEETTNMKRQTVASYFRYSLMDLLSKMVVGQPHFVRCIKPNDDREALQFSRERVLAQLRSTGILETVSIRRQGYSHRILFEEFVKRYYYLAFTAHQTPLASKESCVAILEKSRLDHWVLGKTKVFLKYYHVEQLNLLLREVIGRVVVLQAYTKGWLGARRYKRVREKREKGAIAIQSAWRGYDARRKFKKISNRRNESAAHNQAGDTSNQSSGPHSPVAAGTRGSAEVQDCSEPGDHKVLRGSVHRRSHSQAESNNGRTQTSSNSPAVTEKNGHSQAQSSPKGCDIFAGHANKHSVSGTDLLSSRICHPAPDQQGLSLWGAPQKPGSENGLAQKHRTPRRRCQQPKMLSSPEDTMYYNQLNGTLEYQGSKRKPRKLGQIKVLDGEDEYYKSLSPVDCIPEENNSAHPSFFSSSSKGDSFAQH

[2] = target: Tyrosine-protein kinase BTK (Homo sapiens, UniProt Q06187); conditions: at 1 µM
[3] = target: T2, Mitogen-activated protein kinase kinase kinase 13 (Homo sapiens) (UniProt O43283); test: Selectivity interaction (KinomeScan (DiscoverX)) EUB0000655a MAP3K13; conditions: at 10 µM
T2 sequence (whole entry): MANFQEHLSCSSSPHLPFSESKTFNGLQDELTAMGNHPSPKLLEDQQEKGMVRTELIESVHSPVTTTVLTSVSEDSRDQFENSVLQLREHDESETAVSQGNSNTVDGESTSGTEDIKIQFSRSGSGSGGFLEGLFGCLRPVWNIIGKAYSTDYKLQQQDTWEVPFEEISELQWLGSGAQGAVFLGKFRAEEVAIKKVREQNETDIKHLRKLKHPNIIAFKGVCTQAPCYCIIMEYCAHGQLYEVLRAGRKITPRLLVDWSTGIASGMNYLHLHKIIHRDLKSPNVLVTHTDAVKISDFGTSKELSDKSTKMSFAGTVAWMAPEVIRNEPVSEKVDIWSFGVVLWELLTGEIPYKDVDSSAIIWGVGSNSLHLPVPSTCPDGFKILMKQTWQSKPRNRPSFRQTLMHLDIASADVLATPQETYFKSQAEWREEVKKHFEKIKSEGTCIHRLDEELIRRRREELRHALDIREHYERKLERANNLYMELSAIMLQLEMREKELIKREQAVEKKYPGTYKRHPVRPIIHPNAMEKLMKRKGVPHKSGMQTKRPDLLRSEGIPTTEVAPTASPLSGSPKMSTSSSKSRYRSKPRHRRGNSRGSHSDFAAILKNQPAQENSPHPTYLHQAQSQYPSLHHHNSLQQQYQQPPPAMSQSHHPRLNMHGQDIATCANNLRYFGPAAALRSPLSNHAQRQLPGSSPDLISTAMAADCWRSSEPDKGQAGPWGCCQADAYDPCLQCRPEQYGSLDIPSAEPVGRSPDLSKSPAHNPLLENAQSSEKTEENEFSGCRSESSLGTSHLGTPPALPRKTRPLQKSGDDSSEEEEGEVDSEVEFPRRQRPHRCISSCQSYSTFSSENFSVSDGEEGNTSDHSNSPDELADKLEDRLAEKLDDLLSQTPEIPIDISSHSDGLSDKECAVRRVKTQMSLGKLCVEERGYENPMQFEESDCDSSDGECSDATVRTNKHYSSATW

[4] = target: Mitogen-activated protein kinase 4 (Homo sapiens) (UniProt P31152); test: Selectivity interaction (KinomeScan (DiscoverX)) EUB0000655a MAPK4; conditions: at 10 µM
[5] = target: T3, Calcium/calmodulin-dependent protein kinase type IV (Homo sapiens) (UniProt Q16566); test: Selectivity interaction (Kinase panel (DSF assay)) EUB0001559a CAMK4
T3 sequence (whole entry): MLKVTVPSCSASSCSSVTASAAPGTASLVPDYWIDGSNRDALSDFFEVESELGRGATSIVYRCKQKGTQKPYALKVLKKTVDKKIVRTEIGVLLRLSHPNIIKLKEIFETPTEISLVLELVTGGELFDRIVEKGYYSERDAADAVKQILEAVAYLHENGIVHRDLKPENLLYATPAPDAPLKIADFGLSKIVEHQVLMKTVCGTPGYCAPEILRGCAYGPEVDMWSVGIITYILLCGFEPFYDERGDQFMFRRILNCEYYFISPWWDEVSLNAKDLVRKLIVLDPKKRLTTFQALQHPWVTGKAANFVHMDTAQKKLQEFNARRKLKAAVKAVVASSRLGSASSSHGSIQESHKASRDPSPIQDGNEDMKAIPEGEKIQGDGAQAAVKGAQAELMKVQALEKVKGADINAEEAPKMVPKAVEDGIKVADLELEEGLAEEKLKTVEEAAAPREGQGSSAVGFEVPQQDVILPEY

Chain of Tyrosine-protein kinase BTK (Q06187 whole entry): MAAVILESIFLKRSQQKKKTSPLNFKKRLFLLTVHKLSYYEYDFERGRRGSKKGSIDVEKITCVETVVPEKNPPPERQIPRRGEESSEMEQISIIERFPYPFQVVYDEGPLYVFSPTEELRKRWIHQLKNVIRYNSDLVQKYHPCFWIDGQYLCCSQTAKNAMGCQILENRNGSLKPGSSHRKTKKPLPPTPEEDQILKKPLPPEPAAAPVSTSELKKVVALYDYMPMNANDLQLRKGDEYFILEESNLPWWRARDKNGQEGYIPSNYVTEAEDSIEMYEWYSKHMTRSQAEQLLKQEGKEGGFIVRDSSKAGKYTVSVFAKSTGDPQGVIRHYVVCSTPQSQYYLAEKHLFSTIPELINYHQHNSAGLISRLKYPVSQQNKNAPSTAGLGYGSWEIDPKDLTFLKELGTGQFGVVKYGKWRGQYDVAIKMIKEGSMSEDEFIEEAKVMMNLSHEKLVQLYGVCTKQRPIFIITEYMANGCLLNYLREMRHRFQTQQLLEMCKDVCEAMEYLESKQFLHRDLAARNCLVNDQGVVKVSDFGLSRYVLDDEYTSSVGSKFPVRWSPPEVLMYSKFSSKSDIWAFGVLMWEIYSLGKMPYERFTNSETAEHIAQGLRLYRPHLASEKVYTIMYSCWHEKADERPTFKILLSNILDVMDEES
Chain of Mitogen-activated protein kinase 4 (Homo sapiens) (P31152 whole entry): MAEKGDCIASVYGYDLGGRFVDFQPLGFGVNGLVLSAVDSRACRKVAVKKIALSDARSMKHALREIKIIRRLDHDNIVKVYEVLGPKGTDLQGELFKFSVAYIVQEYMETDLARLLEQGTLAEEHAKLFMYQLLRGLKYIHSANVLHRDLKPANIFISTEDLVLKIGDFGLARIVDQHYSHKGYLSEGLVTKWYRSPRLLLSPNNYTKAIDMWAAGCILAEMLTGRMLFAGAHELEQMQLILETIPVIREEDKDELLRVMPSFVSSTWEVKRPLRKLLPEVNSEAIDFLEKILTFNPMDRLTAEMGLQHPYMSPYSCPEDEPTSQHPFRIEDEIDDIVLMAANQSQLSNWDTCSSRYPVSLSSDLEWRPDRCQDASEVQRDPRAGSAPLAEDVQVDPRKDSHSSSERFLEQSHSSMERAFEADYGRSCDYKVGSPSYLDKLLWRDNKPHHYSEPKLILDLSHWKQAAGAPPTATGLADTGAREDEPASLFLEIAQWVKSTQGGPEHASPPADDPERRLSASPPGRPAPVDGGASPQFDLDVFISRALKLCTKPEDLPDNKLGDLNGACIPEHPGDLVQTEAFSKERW

SMILES: Cc1cc([C@@H](C)Nc2ccccc2C(=O)O)c2nc(N3CCOCC3)cc(=O)n2c1 [AZD-6482]
% of control [1]: 93%

SMILES: C=CC(=O)Nc1cc(-n2c(=O)ccc3cnc4ccc(-c5ccc(NS(C)(=O)=O)cc5)cc4c32)ccc1C
% of control [2]: 1%

SMILES: CN(C)CCOc1ccc(-c2nc(-c3ccncc3)c(-c3ccc4c(c3)CC/C4=N\O)[nH]2)cc1
% of control [3]: 100% | % of control [4]: 100%

dTM [5]: -0.4 K
SMILES: CN(C(=O)c1cnn2cccnc12)c1cc2c(cc1N1CCOCC1)C(=O)N(C[C@@H](F)C(C)(C)O)C2
